From ChEMBL document CHEMBL1201862, “PubChem BioAssay data set” (2004)
“And” between values parts separate entries of the source, which are not always exact repeats. Equal values may be shown once. The source made the active and inactive calls.

Experiments:
[1] = target: T1, Type-1 angiotensin II receptor (Homo sapiens, UniProt P30556); assay: agonist activity at AGTR1 – cell-based, uHTS hits, selectivity assay for APJ receptor agonist project, dose response (AID 488865); format: functional;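 further: beta-arrestin recruitment to AT1 measured by enzyme fragment complementation luminescence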
T1 sequence (P30556 whole entry): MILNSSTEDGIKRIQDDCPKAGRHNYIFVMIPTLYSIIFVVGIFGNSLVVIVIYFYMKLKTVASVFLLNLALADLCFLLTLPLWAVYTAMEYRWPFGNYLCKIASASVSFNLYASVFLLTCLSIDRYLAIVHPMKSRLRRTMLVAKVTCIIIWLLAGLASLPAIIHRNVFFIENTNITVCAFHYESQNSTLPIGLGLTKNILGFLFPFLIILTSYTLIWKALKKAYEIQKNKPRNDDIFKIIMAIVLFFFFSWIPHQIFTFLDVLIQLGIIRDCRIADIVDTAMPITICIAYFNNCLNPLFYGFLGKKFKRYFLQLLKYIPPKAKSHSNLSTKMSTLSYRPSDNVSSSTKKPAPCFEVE

Coagulation factor XII = target: T2, Coagulation factor XII (Homo sapiens, UniProt P00748); assay: Factor XIIa Dose Response Confirmation from Single Well HTS. [Related pubchem assays (depositor defined):AID701]; format: functional
T2 sequence (P00748 whole entry): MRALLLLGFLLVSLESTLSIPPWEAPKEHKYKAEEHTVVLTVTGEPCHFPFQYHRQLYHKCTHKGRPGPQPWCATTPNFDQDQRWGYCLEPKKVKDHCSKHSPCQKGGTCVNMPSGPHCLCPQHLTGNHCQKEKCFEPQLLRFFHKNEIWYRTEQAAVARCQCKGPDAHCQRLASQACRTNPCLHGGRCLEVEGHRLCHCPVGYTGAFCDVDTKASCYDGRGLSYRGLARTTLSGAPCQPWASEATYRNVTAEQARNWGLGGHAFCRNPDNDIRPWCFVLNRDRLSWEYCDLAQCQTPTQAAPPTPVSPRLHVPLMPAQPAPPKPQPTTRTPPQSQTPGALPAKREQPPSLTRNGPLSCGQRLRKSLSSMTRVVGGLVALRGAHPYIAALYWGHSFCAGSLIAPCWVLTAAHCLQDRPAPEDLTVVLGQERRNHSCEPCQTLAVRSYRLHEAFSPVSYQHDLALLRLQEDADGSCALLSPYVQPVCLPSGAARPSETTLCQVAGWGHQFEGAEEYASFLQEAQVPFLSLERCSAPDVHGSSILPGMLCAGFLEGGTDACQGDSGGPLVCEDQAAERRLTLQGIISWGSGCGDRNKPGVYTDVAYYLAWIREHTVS

Prothrombin = Prothrombin (Homo sapiens, UniProt P00734); assay: Thrombin 1536 HTS Dose Response Confirmation. [Related pubchem assays: 1046 (Thrombin 1536 HTS; hits were confirmed in this assay)]; format: functional
[2] = Intein inhibitors as potential Tuberculosis drugs, a cytotoxicity screen. [Related pubchem assays (depositor defined):AID2221, AID2223, AID434968, AID435010, AID449749, AID449750, AID489010]; format: functional
Protein RecA = target: T3, Protein RecA (Mycobacterium tuberculosis, UniProt P9WHJ3); assay: Fluorescence Cell-Free Homogeneous Dose Retest to Identify Inhibitors of RecA-Intein Splicing Activity. [Related pubchem assays (depositor defined):AID2097, AID2223, AID489010, AID492950]; format: functional
T3 sequence (P9WHJ3 whole entry): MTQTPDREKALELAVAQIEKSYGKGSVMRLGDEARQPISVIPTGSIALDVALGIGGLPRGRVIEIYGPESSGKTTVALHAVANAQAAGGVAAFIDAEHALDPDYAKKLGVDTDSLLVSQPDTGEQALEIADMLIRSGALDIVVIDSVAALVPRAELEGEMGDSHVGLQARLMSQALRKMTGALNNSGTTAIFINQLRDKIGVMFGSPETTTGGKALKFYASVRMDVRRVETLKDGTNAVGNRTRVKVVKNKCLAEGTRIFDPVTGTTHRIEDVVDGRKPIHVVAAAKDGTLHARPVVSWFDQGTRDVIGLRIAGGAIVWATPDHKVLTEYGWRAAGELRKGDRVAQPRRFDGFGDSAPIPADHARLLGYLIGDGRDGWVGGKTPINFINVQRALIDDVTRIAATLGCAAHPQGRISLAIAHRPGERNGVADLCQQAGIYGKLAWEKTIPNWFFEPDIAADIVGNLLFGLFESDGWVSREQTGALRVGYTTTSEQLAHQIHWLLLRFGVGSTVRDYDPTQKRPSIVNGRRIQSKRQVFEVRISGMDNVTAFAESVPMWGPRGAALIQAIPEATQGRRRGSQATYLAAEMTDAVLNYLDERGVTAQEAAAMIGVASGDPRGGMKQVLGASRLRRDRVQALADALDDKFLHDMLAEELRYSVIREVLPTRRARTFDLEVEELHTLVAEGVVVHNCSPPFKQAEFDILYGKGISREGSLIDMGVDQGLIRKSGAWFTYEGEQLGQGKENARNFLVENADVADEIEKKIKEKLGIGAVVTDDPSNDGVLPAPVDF

[3] = HEK-293T viability loss after treatment – luminescence, T-cell screen hits, cytotoxicity control for TCR NF-kB inhibitor project, dose response (AID 489026); format: functional, cell-based;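 further: cells exposed to compound about 14 hours before the viability readout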
[4] = target: T4, Replicative DNA helicase DnaB (Mycobacterium tuberculosis, UniProt P9WMR3); assay: DnaB intein splicing inhibitors, dose response, biochemical, cell-free fluorescence (AID 449749); format: functional
T4 sequence (P9WMR3 whole entry): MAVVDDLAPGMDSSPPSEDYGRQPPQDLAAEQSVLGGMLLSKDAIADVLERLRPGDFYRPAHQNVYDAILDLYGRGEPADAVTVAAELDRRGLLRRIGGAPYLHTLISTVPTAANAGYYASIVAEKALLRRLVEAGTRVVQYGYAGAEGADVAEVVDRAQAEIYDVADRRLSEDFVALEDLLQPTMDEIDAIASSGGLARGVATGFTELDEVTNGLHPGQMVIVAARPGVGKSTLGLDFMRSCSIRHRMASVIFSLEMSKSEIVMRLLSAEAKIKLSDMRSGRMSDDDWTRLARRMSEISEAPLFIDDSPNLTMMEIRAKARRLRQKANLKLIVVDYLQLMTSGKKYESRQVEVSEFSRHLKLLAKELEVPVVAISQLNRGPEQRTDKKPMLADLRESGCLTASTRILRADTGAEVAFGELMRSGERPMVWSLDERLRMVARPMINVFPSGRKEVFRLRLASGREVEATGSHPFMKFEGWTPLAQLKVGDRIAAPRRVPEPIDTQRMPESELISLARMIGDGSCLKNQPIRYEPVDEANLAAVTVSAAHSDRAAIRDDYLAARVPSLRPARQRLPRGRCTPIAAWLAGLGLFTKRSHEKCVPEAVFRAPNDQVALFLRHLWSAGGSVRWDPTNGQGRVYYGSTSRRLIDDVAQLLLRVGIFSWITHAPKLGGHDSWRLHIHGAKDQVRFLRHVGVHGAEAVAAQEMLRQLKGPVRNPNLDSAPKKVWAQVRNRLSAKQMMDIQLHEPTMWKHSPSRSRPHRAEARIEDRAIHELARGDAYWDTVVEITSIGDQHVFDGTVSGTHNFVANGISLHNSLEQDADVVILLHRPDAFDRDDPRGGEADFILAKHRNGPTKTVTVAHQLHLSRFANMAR

[5] = target: T5, Alkaline phosphatase, tissue-nonspecific isozyme (Homo sapiens, UniProt P05186); assay: potency against alkaline phosphatase TNAP – biochemical, luminescent, dose response, SAR follow-up (AID 1056)
T5 sequence (P05186 whole entry): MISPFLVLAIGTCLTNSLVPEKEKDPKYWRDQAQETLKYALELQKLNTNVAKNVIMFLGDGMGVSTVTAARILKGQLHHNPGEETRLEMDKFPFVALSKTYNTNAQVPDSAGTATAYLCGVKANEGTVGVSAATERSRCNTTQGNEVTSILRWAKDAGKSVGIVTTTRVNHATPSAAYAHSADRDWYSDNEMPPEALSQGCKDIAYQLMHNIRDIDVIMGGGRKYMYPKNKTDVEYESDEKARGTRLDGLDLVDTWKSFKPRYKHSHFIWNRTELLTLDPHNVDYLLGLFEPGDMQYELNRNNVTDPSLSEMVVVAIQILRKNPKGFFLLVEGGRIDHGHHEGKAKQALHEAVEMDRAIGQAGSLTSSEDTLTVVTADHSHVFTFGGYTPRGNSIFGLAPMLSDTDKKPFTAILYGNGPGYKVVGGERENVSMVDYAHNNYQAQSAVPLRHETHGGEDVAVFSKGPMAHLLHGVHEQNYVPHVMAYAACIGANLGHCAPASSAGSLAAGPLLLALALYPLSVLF

[6] = target: Glyceraldehyde-3-phosphate dehydrogenase (Homo sapiens, UniProt P04406)
X-box-binding protein 1 = X-box-binding protein 1 (Homo sapiens, UniProt P17861); format: functional, Cricetulus griseus;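 further: confirmatory dose-response counter-screen serving a CHOP assay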
Beta-galactosidase = Beta-galactosidase (Escherichia coli, UniProt Q8VNN2); assay: detection-enzyme interference by beta-gal modulators – biochemical, E. coli enzyme, set 3, artefact control for CCR6 antagonist project, dose response (AID 504712); format: functional
[7] = target: Sphingosine 1-phosphate receptor 1 (Homo sapiens, UniProt P21453); format: functional;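 further: Tango beta-arrestin reporter U2OS cells stimulated with S1P near its EC80; inhibitor potency meaning antagonism of receptor activation by the natural agonist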
[8] = Vero E6 cell cytotoxicity, dose response, cytotoxicity control for non-replicating M. tuberculosis project, secondary assay (AID 492998); format: functional, VeroE6; details: Vero C1008
[9] = viability of PTEN-deleted HCT116 cells – cell-based, HCT116 PTEN knockout, dose response (AID 1047); format: functional;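 further: HCT116 colon tumor cells with PTEN knocked out; cells exposed to compound for 60 hours before readout; potency for loss of cell viability measured by luminescence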
HEK293 = assay: EBV LMP1 TES2 canonical NF-kB signalling blockers – cell-based, HEK293, luciferase, cherry-pick, dose response (AID 588343); format: functional; details: Homo sapiens
cells = format: functional
[10] = target: DNA damage-inducible transcript 3 protein (Mus musculus, UniProt P35639); format: functional, Cricetulus griseus
[11] = viability of HCT116 lacking mutant beta-catenin – cell-based, human colon tumor, dose response (AID 1045); format: functional;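 further: HCT116 colon tumor cells with beta catenin knocked out; cells exposed to compound for 60 hours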
[12] = target: T6, Heat shock factor protein 1 (Mus musculus, UniProt P38532); assay: decrease of HSF1-responsive luciferase luminescence – cell-based, NIH3T3, dose retest, confirmation (AID 2382); format: functional;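 further: NIH3T3 fibroblasts with HSF1-driven luciferase reporter stressed by proteasome inhibitor MG132; luminescence from HSF1-driven luciferase expression after 8 hours of MG132 stress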
T6 sequence (P38532 whole entry): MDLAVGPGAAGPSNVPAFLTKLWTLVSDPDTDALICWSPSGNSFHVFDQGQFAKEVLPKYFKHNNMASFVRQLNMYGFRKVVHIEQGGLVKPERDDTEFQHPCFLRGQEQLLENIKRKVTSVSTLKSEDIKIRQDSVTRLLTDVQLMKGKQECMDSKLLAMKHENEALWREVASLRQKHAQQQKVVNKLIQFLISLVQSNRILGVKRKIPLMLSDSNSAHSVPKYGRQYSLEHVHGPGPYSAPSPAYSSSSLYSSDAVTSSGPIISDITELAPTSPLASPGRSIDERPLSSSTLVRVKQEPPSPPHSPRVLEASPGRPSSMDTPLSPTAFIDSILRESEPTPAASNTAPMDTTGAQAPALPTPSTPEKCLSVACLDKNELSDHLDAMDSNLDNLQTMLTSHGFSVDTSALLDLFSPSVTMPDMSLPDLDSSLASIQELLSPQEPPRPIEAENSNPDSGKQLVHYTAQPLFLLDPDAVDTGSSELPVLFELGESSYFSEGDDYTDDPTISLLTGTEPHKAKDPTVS

[13] = target: T7, Sphingosine 1-phosphate receptor 4 (Homo sapiens, UniProt O95977); assay: Fluorescence dose response cell-based high throughput screening assay for antagonists of the Sphingosine 1-Phosphate Receptor 4 (S1P4). [Related pubchem assays: 1524 (Confirmation in triplicates.), 1510 (Primary screen.)]; format: functional
T7 sequence (O95977 whole entry): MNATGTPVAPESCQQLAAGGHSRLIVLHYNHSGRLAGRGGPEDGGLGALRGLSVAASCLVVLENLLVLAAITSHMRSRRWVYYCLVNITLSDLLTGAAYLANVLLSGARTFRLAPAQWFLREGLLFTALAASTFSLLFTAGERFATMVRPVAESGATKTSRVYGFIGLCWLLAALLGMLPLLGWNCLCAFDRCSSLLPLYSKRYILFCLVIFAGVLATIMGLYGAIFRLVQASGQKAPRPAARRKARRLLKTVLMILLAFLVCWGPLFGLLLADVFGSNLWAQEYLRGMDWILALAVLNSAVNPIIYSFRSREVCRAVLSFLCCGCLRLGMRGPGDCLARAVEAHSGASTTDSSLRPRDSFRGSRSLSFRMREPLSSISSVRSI

[14] = THP-1 cell cytotoxicity, dose response, cytotoxicity control for non-replicating M. tuberculosis project (AID 489025); format: functional
[15] = target: T7, Sphingosine 1-phosphate receptor 4; assay: Late-stage fluorescence dose response cell-based assay to identify agonists of the Sphingosine 1-Phosphate Receptor 4 (S1P4): purchased compounds EC50. [Related pubchem assays (depositor defined):AID1509, AID1523, AID1563, AID1686, AID1701, AID1801]; format: functional
T-cell = assay: loss of vesicle association with mouse CD8+ T cells – mouse 2C CD8+ T cells, flow cytometry, dose response (AID 485284); format: functional
[16] = Luminescence Cell-Based Dose Retest to Confirm Inhibitors of Cancer Stem Cells. [Related pubchem assays (depositor defined):AID2717, AID2721]; format: functional; details: Homo sapiens

Sequence of Glyceraldehyde-3-phosphate dehydrogenase (P04406 whole entry): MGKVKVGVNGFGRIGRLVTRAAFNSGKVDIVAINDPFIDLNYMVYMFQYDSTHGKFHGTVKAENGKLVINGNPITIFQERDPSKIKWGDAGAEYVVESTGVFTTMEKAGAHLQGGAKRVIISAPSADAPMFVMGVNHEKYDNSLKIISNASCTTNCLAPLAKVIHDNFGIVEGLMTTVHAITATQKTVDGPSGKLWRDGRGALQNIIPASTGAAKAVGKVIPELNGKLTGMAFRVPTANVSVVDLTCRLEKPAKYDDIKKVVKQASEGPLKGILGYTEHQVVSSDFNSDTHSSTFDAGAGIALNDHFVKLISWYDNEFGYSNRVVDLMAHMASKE
Sequence of Beta-galactosidase (Q8VNN2 whole entry): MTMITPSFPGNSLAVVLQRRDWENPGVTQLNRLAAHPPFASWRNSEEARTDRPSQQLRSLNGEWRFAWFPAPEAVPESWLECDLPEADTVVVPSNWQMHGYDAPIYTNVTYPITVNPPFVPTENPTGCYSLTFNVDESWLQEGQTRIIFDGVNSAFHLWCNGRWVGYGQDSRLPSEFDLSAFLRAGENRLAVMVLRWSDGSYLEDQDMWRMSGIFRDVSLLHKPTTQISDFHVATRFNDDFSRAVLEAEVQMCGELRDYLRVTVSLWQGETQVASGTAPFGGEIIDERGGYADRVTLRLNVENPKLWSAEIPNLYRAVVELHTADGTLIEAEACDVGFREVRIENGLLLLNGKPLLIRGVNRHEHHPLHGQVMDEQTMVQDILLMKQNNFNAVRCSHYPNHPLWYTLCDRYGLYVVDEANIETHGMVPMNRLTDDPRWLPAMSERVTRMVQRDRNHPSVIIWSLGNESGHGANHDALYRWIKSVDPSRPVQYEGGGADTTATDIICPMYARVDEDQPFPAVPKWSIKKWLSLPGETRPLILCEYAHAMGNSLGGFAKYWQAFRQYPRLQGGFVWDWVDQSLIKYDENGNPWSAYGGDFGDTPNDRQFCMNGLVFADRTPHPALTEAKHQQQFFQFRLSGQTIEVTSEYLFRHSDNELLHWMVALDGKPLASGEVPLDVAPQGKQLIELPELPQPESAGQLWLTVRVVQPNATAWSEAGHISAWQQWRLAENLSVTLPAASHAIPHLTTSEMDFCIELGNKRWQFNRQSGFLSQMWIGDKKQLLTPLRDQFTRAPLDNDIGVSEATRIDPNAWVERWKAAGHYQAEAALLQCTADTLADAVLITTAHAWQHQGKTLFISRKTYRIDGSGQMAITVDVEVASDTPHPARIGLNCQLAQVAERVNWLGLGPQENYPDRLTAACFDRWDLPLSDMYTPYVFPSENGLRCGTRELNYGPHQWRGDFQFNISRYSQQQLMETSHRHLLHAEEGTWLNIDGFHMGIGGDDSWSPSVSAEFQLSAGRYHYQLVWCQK
Sequence of Sphingosine 1-phosphate receptor 1 (P21453 whole entry): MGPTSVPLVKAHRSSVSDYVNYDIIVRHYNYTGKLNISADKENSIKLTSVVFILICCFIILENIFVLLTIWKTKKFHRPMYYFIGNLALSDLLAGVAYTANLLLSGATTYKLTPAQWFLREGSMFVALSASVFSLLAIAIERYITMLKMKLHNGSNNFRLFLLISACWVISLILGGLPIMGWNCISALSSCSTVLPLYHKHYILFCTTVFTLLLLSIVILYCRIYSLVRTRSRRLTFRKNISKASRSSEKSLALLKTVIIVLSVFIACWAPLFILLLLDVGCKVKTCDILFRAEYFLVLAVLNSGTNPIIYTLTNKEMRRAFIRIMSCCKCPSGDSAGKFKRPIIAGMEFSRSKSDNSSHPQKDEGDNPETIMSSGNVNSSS
Sequence of X-box-binding protein 1 (P17861 whole entry): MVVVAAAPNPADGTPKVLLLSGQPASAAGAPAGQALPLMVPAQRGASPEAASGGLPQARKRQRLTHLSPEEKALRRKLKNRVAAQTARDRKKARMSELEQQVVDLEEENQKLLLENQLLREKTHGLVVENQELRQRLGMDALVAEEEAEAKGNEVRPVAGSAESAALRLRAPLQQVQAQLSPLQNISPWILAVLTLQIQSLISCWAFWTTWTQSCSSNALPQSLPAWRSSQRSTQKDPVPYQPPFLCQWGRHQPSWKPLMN
Sequence of DNA damage-inducible transcript 3 protein (P35639 whole entry): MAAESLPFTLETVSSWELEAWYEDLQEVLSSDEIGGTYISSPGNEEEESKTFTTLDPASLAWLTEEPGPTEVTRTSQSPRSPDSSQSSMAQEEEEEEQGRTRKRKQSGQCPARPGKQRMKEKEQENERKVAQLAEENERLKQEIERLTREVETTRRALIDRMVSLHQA

CCOc1cc2[nH]c(=S)n(CC3CCCN3CC)c(=O)c2cc1OCC (centres undefined)
EC50 [1]: > 100 µM (inactive)

COc1cccc(-c2nc3ccccc3c(=O)o2)c1
IC50 (Coagulation factor XII): > 50 µM (inconclusive) | IC50 (Prothrombin): 6.94 µM (active)

CC(C)(C)c1csc(Sc2ccc([N+](=O)[O-])cn2)n1
CC50 [2]: > 40 µM (active) | EC50 (Protein RecA): 1.75 µM (active) | IC50 [3]: > 80 µM (inactive) | AC50 [4]: 2.54 µM (active)

O=C(O)c1ccc(-c2ccccc2)[nH]1
IC50 [5]: > 100 µM (inactive) | IC50 [6]: > 100 µM (not active)

O=C1c2cccc3c([N+](=O)[O-])ccc(c23)C(=O)N1c1ccccn1
Absolute IC50 (XBP1) (X-box-binding protein 1): 10 µM | IC50 (Beta-galactosidase): > 66.6 µM (inactive) | IC50 [7]: 2.29 µM (active) | CC50 [8]: 12.3 µM (active) | EC50 [9]: 4.17 µM (active) | AC50 (HEK293): 5.7 µM (active) | IC50 (cells): 20.3 µM (active) | Absolute IC50 (CHOP) [10]: 10 µM | EC50 [11]: 2.38 µM (active) | EC50 [12]: 12.8 µM (active) | IC50 [13]: 0.75 µM (active) | CC50 [14]: 6.16 µM (active)

Cc1ccc(OCC(=O)Nc2cc(Cl)cc(Cl)c2)c([N+](=O)[O-])n1
EC50 [15]: 3.6 µM (active) and > 50 µM (inactive)

CC1(C)Cc2c(C#N)c(NC3CCCCC3)nc(-c3ccco3)c2CO1
EC50 (T-cell): 6.98 µM (active) | AC50 [16]: 5.72 µM (active)
